Laboratory results as given in PubChem BioAssay (NCI).
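Test compounds were applied to cells in 96-well plates for 48 hours at 5 doses. TGI denotes the concentration required for complete inhibition of growth.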

Legend:
Test in all cases: NCI-60 cell line screen, 48 h
[1] = tested on: DU-145 prostate
[2] = tested on: MDA-MB-435
[3] = tested on: T-47D breast
[4] = tested on: NCI-H23 lung
[5] = tested on: HT29 colon
[6] = tested on: SK-MEL-2 melanoma
[7] = tested on: PC-3 prostate
[8] = tested on: TK-10 renal
[9] = tested on: RXF 393 renal
[10] = tested on: U251 CNS
[11] = tested on: SNB-19 CNS
[12] = tested on: K-562 leukemia
[13] = tested on: HL-60(TB) leukemia
[14] = tested on: SW-620 colon
[15] = tested on: RPMI-8226 leukemia
[16] = tested on: SN12C renal
[17] = tested on: NCI-H522 lung
[18] = tested on: UO-31 renal
[19] = tested on: MDA-MB-231 breast
[20] = tested on: CAKI-1 renal
[21] = tested on: HCT-116 colon
[22] = tested on: LOX IMVI melanoma
[23] = tested on: SF-268 CNS
[24] = tested on: SR leukemia
[25] = tested on: HS 578T breast
[26] = tested on: MDA-N
[27] = tested on: NCI-H226 lung
[28] = tested on: OVCAR-5 ovarian
[29] = tested on: OVCAR-3 ovarian
[30] = tested on: A549 NSCLC
[31] = tested on: IGROV1 ovarian
[32] = tested on: UACC-62 melanoma
[33] = tested on: KM12 colon
[34] = tested on: MOLT-4 leukemia
[35] = tested on: HOP-62 NSCLC
[36] = tested on: OVCAR-8 ovarian
[37] = tested on: UACC-257 melanoma
[38] = tested on: MCF7 breast
[39] = tested on: BT-549 breast
[40] = tested on: NCI-H460 lung
[41] = tested on: SK-MEL-5 melanoma
[42] = tested on: ACHN renal
[43] = tested on: SNB-75 CNS
[44] = tested on: SF-295 CNS
[45] = tested on: NCI/ADR-RES ovarian
[46] = tested on: M14 melanoma
[47] = tested on: SF-539 CNS
[48] = tested on: HCC-2998 colon
[49] = tested on: HCT-15 colon
[50] = tested on: 786-0 renal
[51] = tested on: MALME-3M melanoma
[52] = tested on: SK-MEL-28 melanoma
[53] = tested on: SK-OV-3 ovarian
[54] = tested on: CCRF-CEM leukemia
[55] = tested on: COLO 205 colon
[56] = tested on: A498 renal
[57] = tested on: OVCAR-4 ovarian
[58] = tested on: EKVX NSCLC
[59] = tested on: HOP-92 NSCLC

Measured: TGI

Cc1ccc(-c2n[nH]c(=O)n2N2C(=O)c3ccccc3C2=O)cc1
not listed: [53] | [54] | [55] | [56] | [57] | [58] | [59]
> 100 µM: all other assays above

O=[N+]([O-])c1cccc(-c2csc(NNC3=NC/C(=C/c4ccc5c(c4)OCO5)S3)n2)c1
37 µM: [56]
29.2 µM: [33]
79 µM: [53]
53 µM: [45]
93.5 µM: [15]
38.6 µM: [41]
64.8 µM: [11]
69 µM: [23]
96 µM: [46]
47.2 µM: [36]
98.7 µM: [55]
48.9 µM: [4]
65.4 µM: [5]
85.6 µM: [18]
46.5 µM: [43]
47.4 µM: [9] | [31]
69.7 µM: [25]
81.6 µM: [8]
93.9 µM: [19]
43.7 µM: [59]
55.8 µM: [7]
41 µM: [58]
42.9 µM: [17]
56.5 µM: [6] | [32]
43.3 µM: [27]
not listed: [24] | [51] | [52]
> 100 µM: all other assays above

[N-]=[N+]=NC[C@H]1OCO[C@H](CN=[N+]=[N-])[C@@H](OCCOCCCl)[C@@H]1OCCOCCCl
57.2 µM: [18]
not listed: [28] | [42] | [56] | [59]
> 100 µM: all other assays above

O=C1CC(NC(=O)C(F)(F)F)c2c(Br)sc(N3CCNCC3)c21 (stereo unspecified)
not listed: [15] | [24] | [35]
> 100 µM: all other assays above

O=c1ccc(-c2ccccc2)n[nH]1
not listed: [15] | [27] | [38] | [43] | [47] | [53] | [55]
> 100 µM: all other assays above

S=C1Nc2ccccc2SC1c1ccccc1 (stereo unspecified)
92.5 µM: [9]
83.2 µM: [25]
71.3 µM: [43]
55.2 µM: [35]
not listed: [6] | [14] | [47] | [48] | [56] | [59]
> 100 µM: all other assays above

COc1ccc(-c2cc(O)c3nc4ccccc4n3c2)cc1
not listed: [3] | [6] | [28] | [41] | [42] | [48] | [53]
> 100 µM: all other assays above
